From patent US10940139B2, “Compounds that interact with the Ras superfamily for the treatment of cancers, inflammatory diseases, rasopathies, and fibrotic disease” (Shy Therapeutics LLC, priority 2017, dated 2021)

Legend:
[1] = target: KRas G12D/Q61H double mutant (Homo sapiens (Human), UniProt P01116, G12D/Q61H); assay: Ras GTP binding domain inhibition assay (labeled GTP); settings: at 20 μM; read-out: KRas G12D Q61H % Inh.
Procedure, shortened: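 Ni-plate capture of His-KRas (3-10 μg/ml, o/n, 4° C); Tris pH 7.5/MgCl2/DTT buffer, 1% DMSO. Cpd 20 μM or titration, 3 h RT. Cy3/Cy5-GTP 45 min RT, wash, fluorescence of bound GTP.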

Rac-1 = Rac-1 (Homo sapiens (Human), UniProt P63000); assay: Rac inhibition assay (labeled GTP); format: binding; settings: read-out: Rac-1 % Inh.
Rho-A = Rho-A (Homo sapiens (Human), UniProt P61586); assay: Rho inhibition assay (labeled GTP); format: binding; settings: read-out: Rho-A % Inh.
Chain of Rho-A (P61586 whole entry, the tested form may be a part): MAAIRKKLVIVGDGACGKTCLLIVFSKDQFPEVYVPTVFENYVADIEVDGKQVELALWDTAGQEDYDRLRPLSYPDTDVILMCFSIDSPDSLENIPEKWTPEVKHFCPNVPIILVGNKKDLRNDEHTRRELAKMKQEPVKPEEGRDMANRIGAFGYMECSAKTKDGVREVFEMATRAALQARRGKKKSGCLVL

KRas G12D mutant protein = KRas G12D mutant protein (Homo sapiens (Human), UniProt P01116, G12D); assay: Ras GTP binding domain inhibition assay (labeled GTP); settings: at 20 μM; read-out: KRas G12D % Inh.
Chain of KRas G12D mutant protein (P01116-2 other isoform, or with tags, fused parts or gaps G12D): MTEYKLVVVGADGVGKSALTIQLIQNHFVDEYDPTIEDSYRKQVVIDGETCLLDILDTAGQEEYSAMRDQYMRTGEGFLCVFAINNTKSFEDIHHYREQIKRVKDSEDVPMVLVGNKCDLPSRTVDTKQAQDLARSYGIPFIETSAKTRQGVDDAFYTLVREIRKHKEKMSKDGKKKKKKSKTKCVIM
Method: The following method was developed as specific assay for KRas G12D mutant protein.
Buffer-I: • 50 mM Tris, pH 7.5 • 150 mM NaCl (optional) • 1 mM MgCl2 • 1 mM DTT. • KRas G12D mutant protein was expressed as a His-tagged protein. Purified His-KRas G12D protein was diluted in buffer-I to a final concentration of 3-10 μg/ml. • 200 μl of the diluted His-KRas G12D protein was added to a nickel coated 96 well plate and incubated overnight at 4° C. • The next day, wells were washed 3× in 200 μl of Buffer-I. • Then 200 μl of Buffer-I were added to each well in the presence of 1% DMSO. • Tested compounds were added to the protein-coated wells at a concentration of 20 μM, and incubated for 3 hours at room temperature. While performing IC50 measurements a serial dilution of all tested concentrations was prepared.
Then 22 μl of Cy3-GTP or Cy5-GTP was added to each well. The labeled GTP was incubated for 45 min. at room temperature. • Following GTP incubation, wells were washed 3× in Buffer-I, and 200 μl of Buffer-I were added to each well. • Following washes, the amount of bound labeled-GTP was measured with an Eppendorf AF2200 plate reader.

Chain of KRas G12D/Q61H double mutant (P01116-2 other isoform, or with tags, fused parts or gaps G12D/Q61H): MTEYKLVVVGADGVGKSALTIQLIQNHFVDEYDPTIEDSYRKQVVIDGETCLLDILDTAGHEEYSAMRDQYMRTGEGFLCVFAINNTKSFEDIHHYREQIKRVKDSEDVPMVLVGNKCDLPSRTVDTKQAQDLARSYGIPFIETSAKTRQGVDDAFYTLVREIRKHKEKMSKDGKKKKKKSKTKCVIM

Structure (SMILES)	inhibition at 20 µM [1] [%]	inhibition at 20 µM (Rac-1) [%]	inhibition at 20 µM (Rho-A) [%]	inhibition at 20 µM (KRas G12D mutant protein) [%]
CC(C)c1nn(C)cc1-c1csc2c(O)nc(-c3ccccn3)nc12 [drawing 3820]	51 to 75	51 to 75	51 to 75	
N#Cc1cccc(-c2csc3c(O)nc(-c4ccccn4)nc23)c1 [drawing 3822]	1 to 25	1 to 25	1 to 25	
Oc1nc(-c2ccccn2)nc2c(-c3cncnc3)csc12 [drawing 3823]	1 to 25	1 to 25	1 to 25	
Cc1c(-c2csc3c(O)nc(-c4ccccn4)nc23)cnn1C [drawing 3824]	51 to 75	76 to 100	76 to 100	
Oc1nc(-c2ccccn2)nc2c(-c3cncc(C(F)F)c3)csc12 [drawing 3826]	1 to 25	1 to 25	0	
Cc1sc2c(O)nc(-c3ccccn3)nc2c1C(=O)N1CCN(c2ccccc2)CC1 [drawing 3827]	25 to 50	76 to 100	76 to 100	
Oc1nc(-c2ccccn2)nc2c(C3CCCCC3)csc12 [drawing 3830]	25 to 50	25 to 50	51 to 75	
COc1cnc(CNC(=O)c2csc3nc(-c4ccccn4)nc(N)c23)[nH]c1=O [drawing 3835]	25 to 50	25 to 50	51 to 75	
Oc1nc(-c2ccccn2)nc2c(CC3CNC3)csc12 [drawing 3837]	25 to 50	76 to 100	76 to 100	
COc1cnc(CNC(=O)c2csc3c(O)nc(-c4ccccn4)nc23)[nH]c1=O [drawing 3838]	1 to 25	1 to 25	1 to 25	
COc1cnc(CNC(=O)c2cc3nc(-c4ccccn4)nc(O)c3s2)[nH]c1=O [drawing 3839]	25 to 50	51 to 75	51 to 75	
Cc1sc2c(O)nc(-c3ccccn3)nc2c1Br [drawing 3840]	25 to 50	25 to 50	51 to 75	
COc1cnc(CNC(=O)c2sc3c(O)nc(-c4ccccn4)nc3c2C)[nH]c1=O [drawing 3842]	1 to 25	0	1 to 25	
Cn1cnc(-c2nc(O)c3c(-c4ccccc4)c(-c4ccncc4)sc3n2)c1 [drawing 3846]	1 to 25	0	0	
COCCNc1nc(-c2ccccn2)nc(-c2cccc(OCCN(C)C)c2)c1Oc1ccccc1 [drawing 3847]	1 to 25	1 to 25	1 to 25	
OCC1(c2ccc(-c3nc(-c4ccccn4)nc(-c4ccc(C5(CO)CC5)cc4)c3Oc3ccccc3)cc2)CC1 [drawing 3850]	1 to 25	25 to 50	25 to 50	
Cn1ccnc1-c1nc(O)c2c(-c3ccccc3)c(-c3ccccc3)sc2n1 [drawing 3854]	1 to 25	1 to 25	1 to 25	
Cn1cnc(-c2nc(O)c3c(-c4ccccc4)c(-c4ccc(CNC(=O)OC(C)(C)C)cc4)sc3n2)c1 [drawing 3855]	1 to 25	25 to 50	25 to 50	
Nc1nc(O)c2sc(-c3cccc(C(=O)NC4CCNC4=O)c3)cc2n1 (stereo not drawn) [drawing 3860]	1 to 25	1 to 25	1 to 25	
Nc1nc(O)c2sc(-c3cccc(C(=O)N4CCC(O)C4)c3)cc2n1 (stereo not drawn) [drawing 3861]	1 to 25	1 to 25	1 to 25	
NC(=O)C1CCCN1C(=O)c1cccc(-c2cc3nc(N)nc(O)c3s2)c1 (stereo not drawn) [drawing 3862]	0	0	0	

Now from value to compound:

inhibition at 20 µM [1] [%]	inhibition at 20 µM (Rac-1) [%]	inhibition at 20 µM (Rho-A) [%]	inhibition at 20 µM (KRas G12D mutant protein) [%]	Structure (SMILES)
0	0	0		Nc1nc(O)c2sc(-c3cccc(C(=O)NCc4ncc[nH]4)c3)cc2n1 [drawing 3863]
0	1 to 25	0		Nc1nc(O)c2sc(-c3cccc(C(=O)NCc4cccc(O)n4)c3)cc2n1 [drawing 3864]
51 to 75	76 to 100	76 to 100		COC(=O)c1nc(-c2ccccn2)nc(O)c1O [drawing 3865]
0	76 to 100	51 to 75		Oc1nc(-c2ccccn2)nc2c(-c3ccccc3)c(-c3ccncc3)sc12 [drawing 3866]
0	1 to 25	25 to 50		Cn1cnc(-c2nc(O)c3sc(-c4ccncc4)c(-c4ccccc4)c3n2)c1 [drawing 3867]
1 to 25	25 to 50	25 to 50		COCC(C)Nc1nc(-c2ccccn2)nc(C(=O)NCCCc2c[nH]cn2)c1Oc1ccccc1 (stereo not drawn) [drawing 3868]
25 to 50	51 to 75	25 to 50		Nc1nc(-c2ccccn2)nc(C(=O)NCCc2ccncc2)c1Oc1ccccc1 [drawing 3869]
1 to 25	1 to 25	0		COc1nc(-c2ccccn2)nc(Oc2cccc(C(F)(F)F)c2)c1OC [drawing 3870]
0	25 to 50	1 to 25		Oc1nc(-c2ccccn2)nc2c(Br)c(-c3ccccc3)sc12 [drawing 3871]
25 to 50	25 to 50	25 to 50		CC(C)(C)c1sc2c(O)nc(-c3ccccn3)nc2c1Br [drawing 3872]
0	1 to 25	0		Cc1ccc(-c2cc3nc(-c4ccccn4)nc(O)c3s2)cc1 [drawing 3873]
1 to 25	51 to 75	51 to 75		Oc1nc(-c2ccccn2)nc2cc(-c3ccccc3Cl)sc12 [drawing 3874]
1 to 25	0	1 to 25		Oc1nc(-c2ccccn2)nc2cc(-c3ccc(-c4ccccc4)cc3)sc12 [drawing 3877]
1 to 25	0	25 to 50		Cc1ccc(-c2csc3c(O)nc(-c4ccccn4)nc23)cc1 [drawing 3878]
1 to 25	0	1 to 25		COc1ccc(-c2cc3nc(-c4ccccn4)nc(O)c3s2)cc1 [drawing 3881]
25 to 50	1 to 25	25 to 50		Oc1nc(-c2ccccn2)nc2cc(-c3cccc(Br)c3)sc12 [drawing 3882]
	76 to 100	1 to 25	51 to 75	COc1nc(-c2ccccn2)nc(Oc2cccc(C(F)(F)F)c2)c1O [drawing 3883]
	25 to 50	25 to 50	51 to 75	COCCN(C)c1nc(-c2nccn2C)nc2sc(-c3ccccc3)c(-c3ccccc3)c12 [drawing 3884]
	25 to 50	25 to 50	51 to 75	CC(C)OCCNc1nc(-c2nccn2C)nc2sc(-c3ccccc3)c(-c3ccccc3)c12 [drawing 3885]
	25 to 50	25 to 50	25 to 50	Cn1ccnc1-c1nc(NCCOC(F)(F)F)c2c(-c3ccccc3)c(-c3ccccc3)sc2n1 [drawing 3886]
	25 to 50	25 to 50	1 to 25	CC(O)CNc1nc(-c2nccn2C)nc2sc(-c3ccccc3)c(-c3ccccc3)c12 (stereo not drawn) [drawing 3887]
	25 to 50	51 to 75	51 to 75	COCCCNc1nc(-c2nccn2C)nc2sc(-c3ccccc3)c(-c3ccccc3)c12 [drawing 3888]
	25 to 50	0	51 to 75	COC1CCN(c2nc(-c3nccn3C)nc3sc(-c4ccccc4)c(-c4ccccc4)c23)C1 (stereo not drawn) [drawing 3889]
	1 to 25	25 to 50	1 to 25	CCOCCOc1nc(-c2nccn2C)nc2sc(-c3ccccc3)c(-c3ccccc3)c12 [drawing 3890]
	1 to 25	1 to 25	25 to 50	CCN(CC)CCOc1nc(-c2nccn2C)nc2sc(-c3ccccc3)c(-c3ccccc3)c12 [drawing 3891]
